Where “and” joins values, the source holds several entries; their conditions need not be identical. Equal entries are not always repeated. Blank lines part the entries; values can stand above or below the molecule they belong to. Calls of active or inactive are those of the source.
Assays:
A-375 [1] = assay: A375 melanoma cell viability reduction, dose response, counter-screen for MITF modulator project, cherry-pick samples, set 2 (AID 540335); type: functional, cell-based; settings: Homo sapiens
A-375 [2] = assay: MITF: Counter assay: A375 proliferation Measured in Cell-Based System Using Plate Reader - 2084-03_Inhibitor_Dose_DryPowder_Activity. [Related pubchem assays (depositor defined):AID488944]; type: functional; settings: Homo sapiens
[3] = molecular target: T1, Aryl hydrocarbon receptor (Homo sapiens, UniProt P35869); settings: Potency;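 further: confirmatory quantitative high-throughput screen measuring activation of the AhR signaling pathway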
T1 sequence (P35869 whole entry): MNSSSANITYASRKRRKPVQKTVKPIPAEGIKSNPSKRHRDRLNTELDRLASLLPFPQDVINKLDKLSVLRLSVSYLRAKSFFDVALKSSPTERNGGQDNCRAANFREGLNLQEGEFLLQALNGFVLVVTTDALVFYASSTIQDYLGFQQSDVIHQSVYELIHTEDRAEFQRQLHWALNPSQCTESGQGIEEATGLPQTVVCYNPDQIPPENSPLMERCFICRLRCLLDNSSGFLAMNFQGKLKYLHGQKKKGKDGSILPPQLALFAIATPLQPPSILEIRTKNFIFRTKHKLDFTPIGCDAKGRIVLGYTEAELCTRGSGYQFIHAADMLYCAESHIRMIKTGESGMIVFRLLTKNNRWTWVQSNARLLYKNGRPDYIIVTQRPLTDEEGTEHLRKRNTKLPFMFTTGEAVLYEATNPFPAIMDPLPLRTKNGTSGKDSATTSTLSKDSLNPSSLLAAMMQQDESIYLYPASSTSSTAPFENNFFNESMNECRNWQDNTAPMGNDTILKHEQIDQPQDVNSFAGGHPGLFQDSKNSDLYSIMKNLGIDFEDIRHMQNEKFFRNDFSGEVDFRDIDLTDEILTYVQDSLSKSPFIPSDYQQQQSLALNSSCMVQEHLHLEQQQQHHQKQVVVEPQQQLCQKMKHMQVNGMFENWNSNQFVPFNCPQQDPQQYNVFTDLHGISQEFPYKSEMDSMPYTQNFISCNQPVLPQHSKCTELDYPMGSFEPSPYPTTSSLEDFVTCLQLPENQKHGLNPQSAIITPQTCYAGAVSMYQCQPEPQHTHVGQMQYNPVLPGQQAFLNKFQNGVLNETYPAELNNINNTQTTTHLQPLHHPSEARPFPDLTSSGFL

[4] = molecular target: DNA dC->dU-editing enzyme APOBEC-3G (Homo sapiens, UniProt Q9HC16); type: functional;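 further: Dose-response counterscreen measuring inhibition of APOBEC3G DNA deaminase activity, run while confirming APOBEC3A inhibitors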
[5] = molecular target: T2, Carboxy-terminal domain RNA polymerase II polypeptide A small phosphatase 1 (Homo sapiens, UniProt Q9GZU7); assay: inhibitors of CTDSP1, concentration-response testing, biochemical assay, absorbance-based, actives from ultra-high-throughput screening (AID 540297); type: functional
T2 sequence (Q9GZU7 whole entry): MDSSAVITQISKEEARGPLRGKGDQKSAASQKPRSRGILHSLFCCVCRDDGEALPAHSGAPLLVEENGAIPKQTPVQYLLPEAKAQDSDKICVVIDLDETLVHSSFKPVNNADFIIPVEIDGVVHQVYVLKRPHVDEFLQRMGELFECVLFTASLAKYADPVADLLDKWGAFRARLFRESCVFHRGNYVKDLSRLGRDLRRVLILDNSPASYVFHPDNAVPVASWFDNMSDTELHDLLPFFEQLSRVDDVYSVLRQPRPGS

[6] = molecular target: DNA dC->dU-editing enzyme APOBEC-3A (Homo sapiens, UniProt P31941); assay: Dose Response confirmation of small molecule APOBEC3A DNA Deaminase Inhibitors via a fluorescence-based single-stranded DNA deaminase assay. [Related pubchem assays (depositor defined):AID493011, AID493024]; type: functional
[7] = molecular target: Ras and Rab interactor 1/Tyrosine-protein kinase ABL1 (Homo sapiens, UniProt P00519+Q13671); type: functional;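 further: biochemical TR-FRET dose-response test measuring inhibition of binding between Rin1 and Abl proteins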
HEK293 = assay: inhibitors of LMP1-driven NF-kB reporter, dose response, cell-based, HEK293, luciferase, cherry-pick (AID 588343); type: functional; settings: Homo sapiens
[8] = molecular target: T3, Ubiquitin-conjugating enzyme E2 N (Homo sapiens, UniProt P61088); type: functional;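 further: Dose-response confirmation in a TR-FRET assay detecting UBC13-driven polyubiquitin chain formation, inhibition measured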
T3 sequence (P61088 whole entry): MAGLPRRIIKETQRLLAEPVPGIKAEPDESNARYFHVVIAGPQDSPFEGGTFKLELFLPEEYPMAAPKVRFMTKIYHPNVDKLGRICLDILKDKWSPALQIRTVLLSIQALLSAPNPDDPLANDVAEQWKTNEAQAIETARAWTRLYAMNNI

[9] = C. albicans growth with fluconazole, confirmation, fluorescence, retest (AID 2467); type: functional, cell-based
Protein Wnt-3a = Protein Wnt-3a (Mus musculus, UniProt P27467); assay: Wnt3a-driven reporter signaling inhibition, dose response, selectivity assay for Gli-SUFU antagonist project, Wnt-LIGHT cells, luminescence (AID 651570); type: functional; settings: read-out: IC50_Mean;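 further: Wnt-LIGHT reporter cells stimulated with conditioned medium from Wnt3a-producing cells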
INS1 = assay: beta cell apoptosis inhibitors, cytokine rescue, dose response, luminescence, retest (AID 449756); type: functional, cell-based; settings: Rattus norvegicus;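 further: cell death triggered by IL-1 beta plus TNF-alpha plus IFN-gamma mixture; protective hits raise ATP signal compared with cytokine alone wells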
[10] = NIH-3T3 fibroblast cytotoxicity, dose response, cytotoxicity control, cell-based, fluorescence, Alamar Blue, secondary assay (AID 2327); type: functional;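 further: NIH-3T3 mouse fibroblasts cultured with fluconazole at 8 µg/mL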
[11] = molecular target: T4, Apoptotic protease-activating factor 1 (Homo sapiens, UniProt O14727); type: functional
T4 sequence (O14727 whole entry): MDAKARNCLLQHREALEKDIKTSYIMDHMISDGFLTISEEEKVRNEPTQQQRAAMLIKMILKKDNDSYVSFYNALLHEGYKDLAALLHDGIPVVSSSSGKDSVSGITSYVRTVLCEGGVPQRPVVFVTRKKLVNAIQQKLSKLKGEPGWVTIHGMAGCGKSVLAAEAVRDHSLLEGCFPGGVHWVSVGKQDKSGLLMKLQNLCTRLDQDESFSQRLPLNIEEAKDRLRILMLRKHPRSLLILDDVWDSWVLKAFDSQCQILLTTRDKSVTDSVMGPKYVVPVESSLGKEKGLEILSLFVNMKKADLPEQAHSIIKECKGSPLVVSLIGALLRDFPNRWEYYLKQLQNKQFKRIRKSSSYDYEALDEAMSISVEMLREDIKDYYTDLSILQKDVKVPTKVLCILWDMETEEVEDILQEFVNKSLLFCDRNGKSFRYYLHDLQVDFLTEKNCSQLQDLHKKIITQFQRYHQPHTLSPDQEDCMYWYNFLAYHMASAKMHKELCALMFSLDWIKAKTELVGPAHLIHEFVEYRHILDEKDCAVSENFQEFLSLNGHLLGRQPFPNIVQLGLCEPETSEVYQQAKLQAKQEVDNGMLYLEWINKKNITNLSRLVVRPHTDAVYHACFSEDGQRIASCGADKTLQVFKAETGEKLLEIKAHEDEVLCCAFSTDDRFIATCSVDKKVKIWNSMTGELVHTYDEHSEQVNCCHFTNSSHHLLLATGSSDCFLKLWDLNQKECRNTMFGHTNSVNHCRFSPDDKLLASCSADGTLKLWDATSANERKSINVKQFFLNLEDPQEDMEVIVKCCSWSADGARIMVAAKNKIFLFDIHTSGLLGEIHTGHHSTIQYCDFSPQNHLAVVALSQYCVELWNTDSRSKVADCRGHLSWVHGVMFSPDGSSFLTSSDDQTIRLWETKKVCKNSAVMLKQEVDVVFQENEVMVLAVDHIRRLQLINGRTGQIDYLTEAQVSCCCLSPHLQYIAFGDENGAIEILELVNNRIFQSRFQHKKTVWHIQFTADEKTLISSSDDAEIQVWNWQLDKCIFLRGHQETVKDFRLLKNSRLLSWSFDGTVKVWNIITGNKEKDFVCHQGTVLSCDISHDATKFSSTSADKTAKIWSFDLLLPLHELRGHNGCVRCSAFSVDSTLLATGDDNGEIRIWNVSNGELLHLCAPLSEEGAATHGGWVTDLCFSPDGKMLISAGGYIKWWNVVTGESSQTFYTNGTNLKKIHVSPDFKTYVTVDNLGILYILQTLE

[12] = HEp-2 cell cytotoxicity, dose response, cytotoxicity control for RSV inhibitor project, HTS (AID 2410); type: functional; settings: human respiratory syncytial virus
[13] = molecular target: T5, DNA repair and recombination protein RAD54-like (Homo sapiens, UniProt Q92698); assay: inhibitors of human RAD54 branch migration, confirmation, biochemical, fluorescence, cherry-picked samples, dose series (AID 651657); type: functional
T5 sequence (Q92698 whole entry): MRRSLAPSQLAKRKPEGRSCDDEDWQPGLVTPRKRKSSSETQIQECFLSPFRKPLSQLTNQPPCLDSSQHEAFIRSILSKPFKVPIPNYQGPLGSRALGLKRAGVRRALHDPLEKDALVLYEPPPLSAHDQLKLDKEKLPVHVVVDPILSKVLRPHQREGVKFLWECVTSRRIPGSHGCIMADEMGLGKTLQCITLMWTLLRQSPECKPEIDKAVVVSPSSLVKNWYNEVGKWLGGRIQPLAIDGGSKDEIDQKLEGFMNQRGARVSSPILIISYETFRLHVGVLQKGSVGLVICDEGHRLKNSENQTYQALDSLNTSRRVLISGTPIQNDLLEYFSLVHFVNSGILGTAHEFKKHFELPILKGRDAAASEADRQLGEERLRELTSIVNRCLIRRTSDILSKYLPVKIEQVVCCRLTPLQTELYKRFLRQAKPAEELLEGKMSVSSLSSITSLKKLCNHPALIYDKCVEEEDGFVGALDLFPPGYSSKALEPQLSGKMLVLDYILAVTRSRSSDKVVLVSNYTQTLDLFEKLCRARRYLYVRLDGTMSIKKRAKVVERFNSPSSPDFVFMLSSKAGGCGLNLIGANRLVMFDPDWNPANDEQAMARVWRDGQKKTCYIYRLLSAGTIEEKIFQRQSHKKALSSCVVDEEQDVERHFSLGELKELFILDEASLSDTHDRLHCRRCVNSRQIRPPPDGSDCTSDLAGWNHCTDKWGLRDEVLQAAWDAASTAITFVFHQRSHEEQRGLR

P388 = assay: cells; type: functional; settings: Mus musculus
SN12K1 = assay: cells; type: functional; settings: Homo sapiens
P388/ADR = assay: cells; type: functional; settings: Mus musculus
[14] = miR-122 activators in hepatoma reporter cells, dose response, cell-based, Huh7 psiCHECK-miR122, Renilla luciferase, cherry-picked (AID 651956); type: functional;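 further: huh7 hepatoma cells stably carrying a psiCHECK-2 miR-122 sensor plasmid; renilla luciferase signal reporting endogenous miR-122 activity after 48 h compound exposure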
Cytochrome P450 3A4 = Cytochrome P450 3A4 (Homo sapiens, UniProt P08684); settings: Potency;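 further: confirmatory qHTS run detecting inhibitors and substrates of CYP3A4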
Chain of Cytochrome P450 3A4 (P08684 whole entry): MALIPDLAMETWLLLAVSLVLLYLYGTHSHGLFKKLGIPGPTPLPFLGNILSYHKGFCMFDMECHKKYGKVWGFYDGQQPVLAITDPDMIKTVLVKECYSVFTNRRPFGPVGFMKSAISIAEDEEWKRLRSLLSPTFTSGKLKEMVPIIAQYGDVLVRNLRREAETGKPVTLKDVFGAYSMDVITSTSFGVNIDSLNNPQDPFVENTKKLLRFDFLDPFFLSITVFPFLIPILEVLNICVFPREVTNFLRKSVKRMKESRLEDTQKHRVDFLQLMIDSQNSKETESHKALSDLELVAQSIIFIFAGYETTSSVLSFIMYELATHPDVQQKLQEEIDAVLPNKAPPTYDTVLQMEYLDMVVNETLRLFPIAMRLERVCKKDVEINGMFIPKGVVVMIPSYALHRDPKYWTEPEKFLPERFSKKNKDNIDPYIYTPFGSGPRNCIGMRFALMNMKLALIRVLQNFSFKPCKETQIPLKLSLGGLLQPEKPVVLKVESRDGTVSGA

Chain of Ras and Rab interactor 1/Tyrosine-protein kinase ABL1 (P00519 whole entry): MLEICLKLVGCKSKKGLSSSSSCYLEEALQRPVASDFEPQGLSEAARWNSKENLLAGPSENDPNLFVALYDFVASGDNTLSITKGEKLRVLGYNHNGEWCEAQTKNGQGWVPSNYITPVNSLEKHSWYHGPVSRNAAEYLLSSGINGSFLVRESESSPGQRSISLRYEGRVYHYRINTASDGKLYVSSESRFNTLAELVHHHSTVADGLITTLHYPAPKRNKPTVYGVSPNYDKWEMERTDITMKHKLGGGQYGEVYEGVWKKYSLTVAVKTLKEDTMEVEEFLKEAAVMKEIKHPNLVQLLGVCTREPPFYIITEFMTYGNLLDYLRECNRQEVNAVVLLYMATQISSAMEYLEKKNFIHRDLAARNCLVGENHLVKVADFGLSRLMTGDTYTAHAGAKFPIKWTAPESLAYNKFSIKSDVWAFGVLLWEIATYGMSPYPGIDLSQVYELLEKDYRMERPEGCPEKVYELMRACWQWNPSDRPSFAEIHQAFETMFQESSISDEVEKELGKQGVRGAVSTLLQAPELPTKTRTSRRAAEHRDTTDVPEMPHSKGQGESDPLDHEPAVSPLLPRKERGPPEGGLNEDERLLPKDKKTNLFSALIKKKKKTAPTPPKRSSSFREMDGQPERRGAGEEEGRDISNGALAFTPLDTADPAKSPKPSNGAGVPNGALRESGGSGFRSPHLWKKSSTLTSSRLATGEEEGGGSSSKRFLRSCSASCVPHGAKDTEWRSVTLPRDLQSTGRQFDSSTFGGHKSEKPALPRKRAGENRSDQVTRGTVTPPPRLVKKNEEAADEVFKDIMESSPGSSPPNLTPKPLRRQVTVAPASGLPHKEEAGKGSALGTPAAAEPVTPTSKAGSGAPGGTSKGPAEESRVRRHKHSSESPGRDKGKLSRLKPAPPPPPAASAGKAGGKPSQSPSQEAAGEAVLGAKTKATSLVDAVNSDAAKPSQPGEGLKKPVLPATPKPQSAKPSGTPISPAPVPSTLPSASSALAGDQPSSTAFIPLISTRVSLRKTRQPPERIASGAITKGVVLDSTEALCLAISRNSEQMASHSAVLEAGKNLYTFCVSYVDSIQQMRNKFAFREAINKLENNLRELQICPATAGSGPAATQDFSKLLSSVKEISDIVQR
Chain of Ras and Rab interactor 1/Tyrosine-protein kinase ABL1 (Q13671 whole entry): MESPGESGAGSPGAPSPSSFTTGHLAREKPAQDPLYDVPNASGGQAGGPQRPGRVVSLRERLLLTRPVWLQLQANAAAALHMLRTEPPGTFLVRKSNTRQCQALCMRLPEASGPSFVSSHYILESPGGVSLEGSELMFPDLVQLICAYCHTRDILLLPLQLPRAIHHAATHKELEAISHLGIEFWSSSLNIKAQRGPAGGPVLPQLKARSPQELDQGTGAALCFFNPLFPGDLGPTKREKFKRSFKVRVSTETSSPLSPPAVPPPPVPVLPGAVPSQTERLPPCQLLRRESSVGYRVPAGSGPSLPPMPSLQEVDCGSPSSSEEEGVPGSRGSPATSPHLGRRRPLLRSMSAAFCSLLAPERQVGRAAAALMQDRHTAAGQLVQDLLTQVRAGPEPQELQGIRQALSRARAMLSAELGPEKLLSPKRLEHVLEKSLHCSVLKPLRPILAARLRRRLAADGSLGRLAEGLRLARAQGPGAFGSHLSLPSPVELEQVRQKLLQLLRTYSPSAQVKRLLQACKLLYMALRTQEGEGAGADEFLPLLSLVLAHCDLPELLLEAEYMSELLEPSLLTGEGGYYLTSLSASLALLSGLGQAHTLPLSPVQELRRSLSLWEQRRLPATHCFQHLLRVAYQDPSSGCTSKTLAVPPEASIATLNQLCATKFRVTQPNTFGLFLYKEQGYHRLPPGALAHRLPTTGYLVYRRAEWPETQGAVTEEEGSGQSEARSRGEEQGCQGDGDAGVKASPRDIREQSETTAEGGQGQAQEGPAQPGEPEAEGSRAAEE
Chain of Protein Wnt-3a (P27467 whole entry): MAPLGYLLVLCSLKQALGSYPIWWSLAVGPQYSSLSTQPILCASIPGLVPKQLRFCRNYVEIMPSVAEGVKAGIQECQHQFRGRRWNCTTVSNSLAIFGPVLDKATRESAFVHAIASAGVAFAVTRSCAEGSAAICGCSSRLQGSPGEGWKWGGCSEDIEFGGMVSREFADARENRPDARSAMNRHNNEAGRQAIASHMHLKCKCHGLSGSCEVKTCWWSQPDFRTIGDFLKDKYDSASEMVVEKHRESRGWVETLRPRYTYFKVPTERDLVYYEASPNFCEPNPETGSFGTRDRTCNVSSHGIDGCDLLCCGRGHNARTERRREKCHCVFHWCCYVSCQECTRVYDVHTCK
Chain of DNA dC->dU-editing enzyme APOBEC-3G (Q9HC16 whole entry, the tested form may be a part): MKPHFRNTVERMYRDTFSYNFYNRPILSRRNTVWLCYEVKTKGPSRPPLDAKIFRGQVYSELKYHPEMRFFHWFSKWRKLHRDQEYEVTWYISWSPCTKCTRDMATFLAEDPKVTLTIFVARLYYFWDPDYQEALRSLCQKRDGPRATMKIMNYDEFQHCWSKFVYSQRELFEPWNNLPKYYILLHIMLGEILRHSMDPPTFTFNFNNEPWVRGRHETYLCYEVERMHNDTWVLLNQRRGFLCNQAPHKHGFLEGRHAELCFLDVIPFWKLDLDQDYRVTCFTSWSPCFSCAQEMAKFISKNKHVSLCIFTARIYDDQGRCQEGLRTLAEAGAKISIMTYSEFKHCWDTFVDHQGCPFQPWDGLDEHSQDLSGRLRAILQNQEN
Chain of DNA dC->dU-editing enzyme APOBEC-3A (P31941 whole entry): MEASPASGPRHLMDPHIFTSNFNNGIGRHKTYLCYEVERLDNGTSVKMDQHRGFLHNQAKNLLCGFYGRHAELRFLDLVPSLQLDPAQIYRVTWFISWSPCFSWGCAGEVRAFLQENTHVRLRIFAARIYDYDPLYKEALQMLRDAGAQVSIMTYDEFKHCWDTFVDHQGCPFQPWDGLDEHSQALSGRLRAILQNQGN

Compound: Clc1ccc(-c2noc(CN3CCOCC3)n2)cc1
AC50 (A-375 [1]): > 35 µM (active) | AC50 (A-375 [2]): > 35 µM (active)

AC50 [3]: 56.2 µM (inconclusive)
Compound: Cc1cccc2sc(N)nc12

Compound: CCN(CC)P(c1n(C)cc[n+]1C)N(CC)CC
IC50 [4]: 3.2 µM (active) | IC50 [5]: 3.52 µM (active) | IC50 [6]: 2.47 µM (active)

IC50 [7]: 25.7 µM (inactive)
Compound: O=C(CC1SCCNC1=O)Nc1ccc(F)c(Cl)c1 (stereo not given)

Compound: COc1ccc(C(=O)Nn2c(SCC(=O)c3ccc(Cl)cc3)nc3ccccc3c2=O)cc1
AC50 (HEK293): 8.36 µM (active) | IC50 [8]: > 20 µM (inactive)

Compound: Cc1csc2ncnc(NCCc3ccccn3)c12
EC50 [9]: 1.92 µM (active) | IC50 (Protein Wnt-3a): 0.887 µM (active) | AC50 (INS1): 4.39 µM (active) | EC50 [10]: > 160 µM (inactive)

IC50 [11]: 50.7 µM (active)
Compound: CC(=O)c1ccc(N2CCN(S(=O)(=O)c3ccc4c5c3CC(=O)N5CC(C)S4)CC2)cc1 (stereo not given)
CC50 [12]: 17 µM (active)

Compound: O=C(CNC(=O)c1ccc(Br)cc1)c1ccccc1
AC50 (A-375 [1]): > 35 µM (active) | AC50 (A-375 [2]): > 35 µM (active)

IC50 [5]: 6.53 µM (active)
Compound: CCOC(=O)C[n+]1c2n(c3ccccc31)CC(O)CS2 (stereo not given)

IC50 [7]: 25.3 µM (inactive)
Compound: CCOC(=O)c1ccc(NC(=O)COc2ccccc2CNCCO)cc1

IC50 [7]: 0.659 µM (active)
Compound: COc1cc(C(=O)Nc2ccc(O)cc2C(=O)O)ccc1OC(C)=O

AC50 [13]: 37.3 µM (active)
Compound: Nc1c(C(=O)NCCN2CCOCC2)c2nc3ccccc3nc2n1-c1ccc2c(c1)OCO2

Compound: COc1nc(NC2CCCCC2)nc(NC(C)(C)C)n1
AC50 (A-375 [1]): > 35 µM (active) | AC50 (A-375 [2]): > 35 µM (active)

Compound: CCOC(=O)/C(=C\c1ccccc1)C(=O)CCN1CCOCC1
GI50 (P388): 0.627 µM (active) | GI50 (SN12K1): 5.53 µM (inactive) | GI50 (P388/ADR): 1.13 µM (inactive)

Compound: O=C(/C=C\c1ccc(/C=C/C(=O)Nc2cccc(C3=NCCCN3)c2)cc1)Nc1cccc(C2=NCCCN2)c1
GI50 (P388): 0.303 µM (active) | GI50 (SN12K1): > 100 µM (inactive) | GI50 (P388/ADR): 79.3 µM (inactive)

Compound: COC(=O)[C@]12CC=C3O[C@@H]4OC5(CCCCC5)O[C@@H]4[C@H]3C1C(=O)C=CC2=O (stereo not given in full)
GI50 (P388): 2.81 µM (inactive) | GI50 (SN12K1): 16 µM (inactive) | GI50 (P388/ADR): 2.96 µM (inactive)

Compound: CN1C(=O)c2cc(NC(=O)Cc3ccccc3)ccc2OC[C@@H]2O[C@@H](CC(=O)NCc3ccc(Cl)cc3)CC[C@H]21
AC50 [14]: 41.4 µM (active)

Compound: COc1cc(C2c3cc4c(cc3[C@@H](Nc3ccc5c(c3)OCCO5)C3COC(=O)[C@H]23)OCO4)cc(OC)c1O (stereo not given in full)
GI50 (P388): < 0.01 µM (active) | GI50 (SN12K1): 0.274 µM (active) | GI50 (P388/ADR): 0.229 µM (active)

AC50 [13]: 92.4 µM (active)
Compound: Nc1ccc(-c2nc3c(ccc4ccccc43)[nH]2)cc1

AC50 (Cytochrome P450 3A4): 20 µM (inconclusive)
Compound: Nc1cc(Cl)c(N)c(Cl)c1
AC50 [3]: 31.6 µM (inconclusive) and 25.1 µM (inconclusive)

Compound: Cc1ccc(N=C=O)cc1N=C=O [TOLUENE DIISOCYANATE]
AC50 [3]: 50.1 µM (inconclusive)
